Results: paper PMC6573034 (Nature Communications, 2019)

Tests used:
[1] = system: vector-transformed E. coli JA202; experiment: Micro pH electrode-based transport assay, vector-transformed E. coli JA202; type: cell-based; conditions: 10 mM compound (pH 6.5) added to vector-transformed bacterial suspension pH 6.7
Method: A measuring set up as previously reported[18] was used for micro pH electrode-based transport measurements. SfMCT was expressed in E. coli JA202 (MC4100 glcA::cat lldP::kan)[15] as described for uptake experiments. After expression, bacteria were pelleted (5,200 × g, 10 min, room temperature), washed twice in assay solution (250 mM KCl, 1 mM MgSO4, 2 mM CaCl2; 5,200 × g, 10 min, room temperature) and finally resuspended in assay solution to a bacterial density of OD600 15. Compounds that were assayed for proton-coupled transport were dissolved in assay solution and the pH was adjusted to 6.5. 800 µl of bacteria suspension were transferred into a 2 ml reaction tube (Eppendorf) and the pH value of the bacterial suspension (extracellular medium) was measured using a micro pH electrode with integrated temperature sensor (InLab Micro Pro, Mettler Toledo) under constant stirring. The pH of the bacterial suspension was adjusted to pH 6.7 using potassium hydroxide and hydrochloric acid. The SevenCompact pH-meter (Mettler Toledo), together with LabX direct pH 2.3 software (Mettler Toledo), were used for automatic recording in 15 s intervals. Measurements were initiated by adding 10 mM of the corresponding compound to the bacterial suspension. All experiments were performed at 24 °C.

[2] = system: MCT4 (SLC16A3); conditions: MCT4, L-lactate; cited from earlier work
[3] = target: T1, SfMCT (Syntrophobacter fumaroxidans, UniProt A0LNN5); type: cell-based; conditions: competitor 1 mM
T1 construct: expressed in transfected cells; host or cells: E. coli JA202 (MC4100 glcA::cat lldP::kan), plasmid pEXT20-SfMCT-3C-10His
T1 sequence (A0LNN5 1-412): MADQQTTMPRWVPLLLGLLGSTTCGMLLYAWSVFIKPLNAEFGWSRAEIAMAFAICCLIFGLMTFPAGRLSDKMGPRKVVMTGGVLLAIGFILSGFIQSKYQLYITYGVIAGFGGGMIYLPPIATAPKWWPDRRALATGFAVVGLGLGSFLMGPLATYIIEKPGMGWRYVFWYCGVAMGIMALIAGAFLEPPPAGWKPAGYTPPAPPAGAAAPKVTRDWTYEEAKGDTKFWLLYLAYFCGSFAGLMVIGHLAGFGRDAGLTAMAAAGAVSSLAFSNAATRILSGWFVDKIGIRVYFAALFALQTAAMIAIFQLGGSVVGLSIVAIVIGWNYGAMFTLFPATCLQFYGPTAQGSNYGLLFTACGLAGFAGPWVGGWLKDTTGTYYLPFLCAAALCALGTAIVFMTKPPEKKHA
Method: (§1) The cultures were grown at 37 °C and 180 r.p.m. in an incubator shaker (Multitron, Infors HT). Protein expression was induced at OD600 ~0.5 by addition of IPTG to a final concentration of 0.25 mM. After 4 h, bacteria were pelleted (5,200 × g, 10 min, room temperature) and resuspended in uptake buffer (20 mM Bis-Tris propane-HCl (pH 6.7), 250 mM KCl) to a bacteria density of OD600 12. […] Furthermore, [3-3 H] propionic acid sodium salt ([^3H]propionate, American Radiolabeled Chemicals, specific activity 30 Ci/mmol), n-[2,3-3 H] butyric acid sodium salt ([^3H]butyrate, American Radiolabeled Chemicals, specific activity 120 Ci/mmol), and [1–14 C] pyruvic acid sodium salt ([^14C]pyruvate, specific activity 0.055 Ci/mmol American Radiolabeled Chemicals) were also used for transport experiments. […] Uptake experiments were performed in 2 ml reaction tubes (Eppendorf) at 30 °C under agitation (1,000 r.p.m., Thermomixer compact, Eppendorf). […] Bacteria were immediately pelleted by centrifugation (21,000 × g, 4 min, room temperature) and washed two times with 900 μl stop buffer. Finally, bacteria were lyzed in 50 μl 5% (w/v) sodium dodecylsulfate and transferred into a white 96-well plate (Optiplate, PerkinElmer). 150 µl of scintillation cocktail (MicroScint 40, PerkinElmer) were added before measuring each reaction for 2 min with a scintillation counter (TopCount NXT, PerkinElmer). For data analysis, the signal of the empty vector was subtracted from the transporter signal. […] Cpm values of each experiment were normalized with respect to the determined upper plateau value, i.e., the fitted upper plateau value corresponds to 100%. The arithmetic average of three independent experiments was calculated. Three independent and normalized pH-dependence curves were then averaged. For data analysis Prism6 (GraphPad Software) was used. […] Equal amounts of bacteria expressing SfMCT variants were loaded on 14% SDS/polyacrylamide gels. His-tagged transporters were detected using an anti-His5 (Qiagen, catalogue number 34660, primary antibody) at a dilution of 1:3,000 and a goat anti-mouse IgG (H + L) HRP conjugate antibody (Biorad, catalogue number 172-1011, secondary antibody) at a dilution of 1:2,500.

[4] = system: MCT1 (SLC16A1); conditions: MCT1, L-lactate; cited from earlier work
[5] = target: T1, SfMCT; experiment: Uptake of [14C]L-lactate and other radiolabeled monocarboxylates into SfMCT expressing E. coli JA202; type: cell-based
Method: as §1

[6] = target: T1, SfMCT; experiment: as above; type: cell-based; conditions: for Net uptake of [14C]L-lactate through SfMCT (cpm): SfMCT minus vector
[7] = system: MCT2 (SLC16A7); conditions: MCT2, L-lactate; cited from earlier work

C[C@H](O)C(=O)O [L-lactate]
proton-coupled transport, change of extracellular pH (in words) [1]: significantly slower and lower pH increase | Km [2]: 20 to 35 mM | competition with [14C]L-lactate uptake (in words) [3]: strongest competition | Km [4]: 3 to 5 mM | Uptake of radioligand by SfMCT (cpm) ([5]; 0.1 µCi radiolabeled monocarboxylate, SfMCT-overexpressing bacteria): 10963 cpm | Uptake of [14C]L-lactate by SfMCT (cpm) ([5]; Time 30 min): 8927.33 cpm | Net uptake of [14C]L-lactate through SfMCT (cpm) ([5]; Time 30 min, SfMCT minus vector): 7196.33 cpm | Uptake of [14C]L-lactate ([5]; [L-lactate] 500 µM): 253.382 pmol | Uptake of [14C]L-lactate ([5]; [L-lactate] 750 µM): 287.925 pmol | Uptake of [14C]L-lactate by SfMCT (cpm) ([6]; Time 5 min): 1353.33 cpm | Net uptake of [14C]L-lactate through SfMCT (cpm) ([6]; Time 5 min): 969 cpm | Uptake of [14C]L-lactate by SfMCT (cpm) ([6]; Time 10 min): 2978.67 cpm | Net uptake of [14C]L-lactate through SfMCT (cpm) ([6]; Time 10 min): 2373.33 cpm | Uptake of [14C]L-lactate by SfMCT (cpm) ([6]; Time 20 min): 6015 cpm | Net uptake of [14C]L-lactate through SfMCT (cpm) ([6]; Time 20 min): 4812 cpm | Uptake of [14C]L-lactate by SfMCT (cpm) ([6]; Time 40 min): 11074.3 cpm | Net uptake of [14C]L-lactate through SfMCT (cpm) ([6]; Time 40 min): 8600.33 cpm | Uptake of [14C]L-lactate by SfMCT (cpm) ([6]; Time 50 min): 12325 cpm | Net uptake of [14C]L-lactate through SfMCT (cpm) ([6]; Time 50 min): 9196.33 cpm | Uptake of [14C]L-lactate by SfMCT (cpm) ([6]; Time 60 min): 13920.3 cpm | Net uptake of [14C]L-lactate through SfMCT (cpm) ([6]; Time 60 min): 9981.67 cpm | Uptake of [14C]L-lactate by SfMCT (cpm) ([6]; Time 75 min): 16014.3 cpm | Net uptake of [14C]L-lactate through SfMCT (cpm) ([6]; Time 75 min): 10856.3 cpm | Uptake of [14C]L-lactate by SfMCT (cpm) ([6]; Time 90 min): 17840 cpm | Net uptake of [14C]L-lactate through SfMCT (cpm) ([6]; Time 90 min): 10528.3 cpm | Uptake of [14C]L-lactate ([6]; [L-lactate] 10 µM): 8.303 pmol | Uptake of [14C]L-lactate ([6]; [L-lactate] 50 µM): 59.1431 pmol | Uptake of [14C]L-lactate ([6]; [L-lactate] 100 µM): 109.881 pmol | Uptake of [14C]L-lactate ([6]; [L-lactate] 175 µM): 163.284 pmol | Uptake of [14C]L-lactate ([6]; [L-lactate] 250 µM): 201.312 pmol | Uptake of [14C]L-lactate ([6]; [L-lactate] 625 µM): 266.195 pmol | Km [7]: ~0.7 mM
